Laboratory results from PMC10174618, “Monoterpenoid aryl hydrocarbon receptor allosteric antagonists protect against ultraviolet skin damage in female mice” (Nature Communications, 2023).

Experiments:
Assay in all cases: biochemical
Design in all cases: KINOMEscan scanMAX active site-directed competition binding assay, percent of control, 468 kinases
Conditions in all cases: competition binding, percent of control
LIMK2 = LIMK2 (Homo sapiens, UniProt P53671)
In short: (§1)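 KINOMEscan active site-directed competition binding assay against 468 human kinases with 100 μM S-carvone. Binding expressed as % of control, with 35% of control as the inhibition threshold.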

ERK3 = biological target: T1, ERK3 (Homo sapiens, UniProt Q16659)
T1 construct: gene MAPK6
In short: as §1

QSK = biological target: T2, QSK (Homo sapiens, UniProt Q9Y2K2)
T2 construct: gene SIK3
In short: as §1

HPK1 = biological target: T3, HPK1 (Homo sapiens, UniProt Q92918)
T3 construct: gene MAP4K1
In short: as §1

CDK5 = CDK5 (Homo sapiens, UniProt Q00535)
In short: as §1

TXK = TXK (Homo sapiens, UniProt P42681)
TXK, sequence (P42681 whole entry): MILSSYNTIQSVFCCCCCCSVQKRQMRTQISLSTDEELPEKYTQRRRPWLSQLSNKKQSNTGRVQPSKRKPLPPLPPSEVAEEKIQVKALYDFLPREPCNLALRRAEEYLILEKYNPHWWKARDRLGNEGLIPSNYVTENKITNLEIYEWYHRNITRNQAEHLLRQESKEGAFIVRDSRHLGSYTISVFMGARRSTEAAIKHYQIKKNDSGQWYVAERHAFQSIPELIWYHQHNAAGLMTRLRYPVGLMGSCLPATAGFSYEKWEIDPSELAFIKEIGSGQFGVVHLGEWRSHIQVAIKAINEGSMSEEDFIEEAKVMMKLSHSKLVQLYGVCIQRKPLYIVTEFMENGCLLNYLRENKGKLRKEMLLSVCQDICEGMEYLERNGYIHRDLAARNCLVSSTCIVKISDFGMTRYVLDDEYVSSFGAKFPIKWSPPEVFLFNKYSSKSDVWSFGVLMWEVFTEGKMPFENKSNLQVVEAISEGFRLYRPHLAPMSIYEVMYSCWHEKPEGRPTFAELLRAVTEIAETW
In short: as §1

[1] = biological target: T4, ABL1(M351T)-phosphorylated (Homo sapiens, UniProt P00519, M351T)
T4 construct: phosphorylated
In short: as §1

ERK1 = biological target: T5, ERK1 (Homo sapiens, UniProt P27361)
T5 construct: gene MAPK3
In short: as §1

[2] = biological target: T6, RSK3(Kin.Dom.2-C-terminal) (Homo sapiens, UniProt Q15349)
T6 construct: gene RPS6KA2; Kin.Dom.2-C-terminal
In short: as §1

SGK2 = SGK2 (Homo sapiens, UniProt Q9HBY8)
In short: as §1

PHKG1 = PHKG1 (Homo sapiens, UniProt Q16816)
In short: as §1

DYRK1B = DYRK1B (Homo sapiens, UniProt Q9Y463)
In short: as §1

ACVR2B = ACVR2B (Homo sapiens, UniProt Q13705)
In short: as §1

LYN = LYN (Homo sapiens, UniProt P07948)
In short: as §1

HASPIN = HASPIN (Homo sapiens, UniProt Q8TF76)
In short: as §1

EPHB2 = EPHB2 (Homo sapiens, UniProt P29323)
In short: as §1

TRPM6 = TRPM6 (Homo sapiens, UniProt Q9BX84)
TRPM6, sequence (Q9BX84 whole entry): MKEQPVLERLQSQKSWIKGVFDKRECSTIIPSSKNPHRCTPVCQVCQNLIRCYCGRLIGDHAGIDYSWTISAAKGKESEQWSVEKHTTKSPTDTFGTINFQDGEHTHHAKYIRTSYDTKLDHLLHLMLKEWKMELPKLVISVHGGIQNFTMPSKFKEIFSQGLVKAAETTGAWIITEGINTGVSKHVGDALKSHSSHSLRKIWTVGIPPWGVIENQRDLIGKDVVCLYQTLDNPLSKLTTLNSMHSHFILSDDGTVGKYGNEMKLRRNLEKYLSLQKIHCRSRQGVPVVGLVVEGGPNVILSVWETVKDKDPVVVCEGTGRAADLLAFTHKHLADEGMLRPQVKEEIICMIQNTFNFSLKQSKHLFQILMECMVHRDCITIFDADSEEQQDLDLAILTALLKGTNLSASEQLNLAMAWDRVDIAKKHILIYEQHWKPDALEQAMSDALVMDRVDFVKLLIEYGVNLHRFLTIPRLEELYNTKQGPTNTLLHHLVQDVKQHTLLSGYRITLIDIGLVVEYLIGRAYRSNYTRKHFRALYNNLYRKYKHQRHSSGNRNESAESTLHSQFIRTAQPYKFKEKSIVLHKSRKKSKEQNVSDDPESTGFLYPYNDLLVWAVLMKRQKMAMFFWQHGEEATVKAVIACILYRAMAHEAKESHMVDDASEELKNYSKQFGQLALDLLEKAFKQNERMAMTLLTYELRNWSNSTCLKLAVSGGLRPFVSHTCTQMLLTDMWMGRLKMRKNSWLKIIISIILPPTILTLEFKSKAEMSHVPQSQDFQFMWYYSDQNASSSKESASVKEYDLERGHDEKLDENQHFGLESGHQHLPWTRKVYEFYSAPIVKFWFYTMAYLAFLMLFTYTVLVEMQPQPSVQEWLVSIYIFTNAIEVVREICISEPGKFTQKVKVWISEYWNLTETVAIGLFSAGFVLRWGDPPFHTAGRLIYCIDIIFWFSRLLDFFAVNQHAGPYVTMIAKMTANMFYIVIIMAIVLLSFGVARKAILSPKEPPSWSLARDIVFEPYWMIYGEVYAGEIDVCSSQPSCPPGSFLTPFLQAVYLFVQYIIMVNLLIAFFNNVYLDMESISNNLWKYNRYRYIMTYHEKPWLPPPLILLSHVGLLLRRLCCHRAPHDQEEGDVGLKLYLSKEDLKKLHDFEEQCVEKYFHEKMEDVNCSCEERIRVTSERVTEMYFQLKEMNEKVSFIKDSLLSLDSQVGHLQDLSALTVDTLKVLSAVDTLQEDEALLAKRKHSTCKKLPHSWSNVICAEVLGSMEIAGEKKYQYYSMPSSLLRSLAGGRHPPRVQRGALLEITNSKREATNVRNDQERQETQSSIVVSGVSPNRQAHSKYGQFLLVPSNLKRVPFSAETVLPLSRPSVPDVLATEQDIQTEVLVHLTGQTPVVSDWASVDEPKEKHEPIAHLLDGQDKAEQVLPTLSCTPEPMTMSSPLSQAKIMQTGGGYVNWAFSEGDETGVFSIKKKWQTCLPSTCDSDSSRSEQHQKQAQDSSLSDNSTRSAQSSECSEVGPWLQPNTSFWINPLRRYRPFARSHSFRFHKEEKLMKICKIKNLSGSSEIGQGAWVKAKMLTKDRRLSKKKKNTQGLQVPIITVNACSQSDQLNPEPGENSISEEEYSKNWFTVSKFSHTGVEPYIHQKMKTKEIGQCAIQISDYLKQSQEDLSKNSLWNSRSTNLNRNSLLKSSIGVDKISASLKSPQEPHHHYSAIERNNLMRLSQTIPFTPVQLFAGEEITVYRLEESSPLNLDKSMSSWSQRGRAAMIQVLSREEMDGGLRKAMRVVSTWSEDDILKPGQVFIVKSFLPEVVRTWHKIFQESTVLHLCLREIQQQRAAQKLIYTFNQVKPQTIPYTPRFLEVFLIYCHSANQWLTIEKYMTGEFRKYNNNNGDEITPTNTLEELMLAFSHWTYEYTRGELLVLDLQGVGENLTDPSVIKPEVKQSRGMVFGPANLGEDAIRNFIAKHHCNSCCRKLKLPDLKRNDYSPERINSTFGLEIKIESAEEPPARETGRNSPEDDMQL
In short: as §1

LIMK1 = LIMK1 (Homo sapiens, UniProt P53667)
LIMK1, sequence (P53667 whole entry): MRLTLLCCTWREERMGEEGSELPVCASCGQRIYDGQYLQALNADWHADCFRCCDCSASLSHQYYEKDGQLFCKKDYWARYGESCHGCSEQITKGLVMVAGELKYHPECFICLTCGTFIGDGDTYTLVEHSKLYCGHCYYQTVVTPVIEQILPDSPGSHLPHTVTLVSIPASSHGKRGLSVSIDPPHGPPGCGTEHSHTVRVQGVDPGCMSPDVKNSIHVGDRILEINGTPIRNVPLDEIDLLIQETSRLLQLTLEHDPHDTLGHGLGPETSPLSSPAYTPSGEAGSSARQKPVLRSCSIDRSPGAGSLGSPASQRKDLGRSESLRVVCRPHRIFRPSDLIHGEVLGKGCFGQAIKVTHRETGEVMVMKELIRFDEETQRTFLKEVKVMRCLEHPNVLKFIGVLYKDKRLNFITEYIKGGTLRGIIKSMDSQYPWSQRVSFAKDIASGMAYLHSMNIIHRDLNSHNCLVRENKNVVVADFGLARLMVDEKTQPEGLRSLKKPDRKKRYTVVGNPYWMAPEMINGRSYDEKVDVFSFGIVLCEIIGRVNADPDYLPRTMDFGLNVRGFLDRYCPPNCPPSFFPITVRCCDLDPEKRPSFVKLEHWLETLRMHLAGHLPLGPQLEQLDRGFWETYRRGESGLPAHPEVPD
In short: as §1

DCAMKL1 = biological target: T7, DCAMKL1 (Homo sapiens, UniProt O15075)
T7 construct: gene DCLK1
T7 sequence (O15075 whole entry): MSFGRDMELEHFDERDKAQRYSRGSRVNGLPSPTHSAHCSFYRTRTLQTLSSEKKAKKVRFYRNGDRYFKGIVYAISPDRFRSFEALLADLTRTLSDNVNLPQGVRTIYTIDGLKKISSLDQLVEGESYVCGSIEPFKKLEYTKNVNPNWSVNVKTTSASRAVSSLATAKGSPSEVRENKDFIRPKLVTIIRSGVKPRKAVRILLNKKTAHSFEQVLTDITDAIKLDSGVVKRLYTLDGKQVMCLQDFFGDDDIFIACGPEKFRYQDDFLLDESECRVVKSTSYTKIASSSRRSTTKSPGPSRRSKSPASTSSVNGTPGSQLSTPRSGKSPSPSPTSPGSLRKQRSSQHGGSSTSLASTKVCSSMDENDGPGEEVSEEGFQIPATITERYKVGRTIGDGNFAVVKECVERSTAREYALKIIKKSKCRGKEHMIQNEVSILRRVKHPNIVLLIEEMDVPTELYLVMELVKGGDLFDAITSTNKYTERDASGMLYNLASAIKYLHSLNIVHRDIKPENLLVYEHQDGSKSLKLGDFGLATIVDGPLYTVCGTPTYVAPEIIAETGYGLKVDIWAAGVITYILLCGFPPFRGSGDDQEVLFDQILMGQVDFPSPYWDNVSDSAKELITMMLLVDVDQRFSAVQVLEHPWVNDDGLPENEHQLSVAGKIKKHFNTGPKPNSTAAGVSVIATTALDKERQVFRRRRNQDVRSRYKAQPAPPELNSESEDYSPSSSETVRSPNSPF
In short: as §1

VEGFR2 = biological target: T8, VEGFR2 (Homo sapiens, UniProt P35968)
T8 construct: gene KDR
In short: as §1

PKN1 = PKN1 (Homo sapiens, UniProt Q16512)
PKN1, sequence (Q16512 whole entry): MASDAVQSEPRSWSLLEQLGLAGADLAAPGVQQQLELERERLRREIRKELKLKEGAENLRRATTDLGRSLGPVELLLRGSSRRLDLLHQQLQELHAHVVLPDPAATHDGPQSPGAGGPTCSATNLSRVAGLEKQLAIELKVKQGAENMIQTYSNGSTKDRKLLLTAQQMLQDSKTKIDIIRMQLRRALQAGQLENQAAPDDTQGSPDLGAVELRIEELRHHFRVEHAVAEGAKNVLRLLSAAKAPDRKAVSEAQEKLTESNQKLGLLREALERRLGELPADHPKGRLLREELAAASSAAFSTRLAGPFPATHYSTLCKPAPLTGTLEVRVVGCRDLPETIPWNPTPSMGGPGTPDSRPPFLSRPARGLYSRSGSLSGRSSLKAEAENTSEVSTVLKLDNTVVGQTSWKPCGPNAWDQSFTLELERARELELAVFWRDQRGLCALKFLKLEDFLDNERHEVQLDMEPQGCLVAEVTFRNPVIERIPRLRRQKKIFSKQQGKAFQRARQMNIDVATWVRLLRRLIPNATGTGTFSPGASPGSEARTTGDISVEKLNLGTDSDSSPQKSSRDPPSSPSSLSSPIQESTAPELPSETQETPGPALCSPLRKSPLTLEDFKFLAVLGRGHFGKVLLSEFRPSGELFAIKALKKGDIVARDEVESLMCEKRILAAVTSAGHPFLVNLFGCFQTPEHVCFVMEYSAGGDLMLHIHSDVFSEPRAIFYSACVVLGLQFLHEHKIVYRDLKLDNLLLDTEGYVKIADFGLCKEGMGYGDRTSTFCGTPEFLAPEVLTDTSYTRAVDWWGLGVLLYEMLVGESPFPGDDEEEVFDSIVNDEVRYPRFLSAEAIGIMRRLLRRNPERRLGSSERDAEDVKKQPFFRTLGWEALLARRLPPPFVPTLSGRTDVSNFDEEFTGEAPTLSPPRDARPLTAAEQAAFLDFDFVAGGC
In short: as §1

BTK = BTK (Homo sapiens, UniProt Q06187)
In short: as §1

## C=C(C)[C@H]1CC=C(C)C(=O)C1 [S-carvone]
LIMK2
  remaining binding at 100 µM: 90%
ERK3
  remaining binding at 100 µM: 73%
QSK
  remaining binding at 100 µM: 89%
HPK1
  remaining binding at 100 µM: 80%
CDK5
  remaining binding at 100 µM: 61%
TXK
  remaining binding at 100 µM: 89%
[1]
  remaining binding at 100 µM: 96%
ERK1
  remaining binding at 100 µM: 75%
[2]
  remaining binding at 100 µM: 63%
SGK2
  remaining binding at 100 µM: 68%
PHKG1
  remaining binding at 100 µM: 100%
DYRK1B
  remaining binding at 100 µM: 100%
ACVR2B
  remaining binding at 100 µM: 75%
LYN
  remaining binding at 100 µM: 72%
HASPIN
  remaining binding at 100 µM: 74%
EPHB2
  remaining binding at 100 µM: 66%
TRPM6
  remaining binding at 100 µM: 87%
LIMK1
  remaining binding at 100 µM: 89%
DCAMKL1
  remaining binding at 100 µM: 85%
VEGFR2
  remaining binding at 100 µM: 60%
PKN1
  remaining binding at 100 µM: 93%
BTK
  remaining binding at 100 µM: 70%
